In PMC11623267, “Inhibitors of malaria parasite cyclic nucleotide phosphodiesterases block asexual blood-stage development and mosquito transmission” (Science Advances, 2024):
Where two headings read alike, the source gives them in different places. Values belong to the compound of their own block, whether it stands above or below them.

Columns and labels:
[1] = system: PDE activity in cell extracts of malaria parasites; design: method as in PMID 16038615, PMID 25951195; details: read-out: IC50 against PDE activity in cell extracts; cited from earlier work
P. falciparum Dd2 = assay: Ex vivo 72-hour SYBR Green assay, Dd2 control (Uganda); assay type: cell-based, Plasmodium falciparum; details: Plasmodium falciparum, DD2, read-out: EC50 lab strain Dd2
Protocol: (§1) Samples were delivered to the adjacent IDRC laboratory at Tororo District Hospital or transported by car from Masafu Hospital on the day of collection for storage of blood spots on filter paper (for isolation of nucleic acids) and initiation of ex vivo culture of malaria parasites. […] Before assay, 10 mM antimalarial stock compounds were diluted as necessary in DMSO and stored at −20°C. […] Compounds were serially diluted threefold in a 96-well assay plate in complete medium to a final volume of 50 μl, in columns 1 to 10, with concentrations optimized to capture full dose-response curves. Column 11 contained compound-free controls, while column 12 contained uninfected human RBC controls. Parasite culture (150 μl) was added to columns 1 to 11 of the assay plate with a final volume of 200 μl per well, 0.2% parasitemia, and 2% hematocrit. […] Thawed plates were incubated with SYBR Green lysis buffer for 1 hour in the dark as previously reported ([62]). Fluorescence was quantified using a BMG Fluostar Optima plate reader at an excitation of 485 nm and an emission of 530 nm, and data were plotted using GraphPad Prism 7. The data were curve fit with a variable slope function to estimate IC50 values. For each isolate, a Z′ factor to assess assay quality was calculated from positive controls (eight drug-free wells) and negative controls (eight parasite-free, red cell control wells). Z′ values over 0.5 were considered good assays, but each curve was also examined by eye for suitability. Some assays with Z′ below 0.5 may be considered valid depending on factors such as the SE of the curve-fit IC50.

[2] = system: P. falciparum (clone 3D7); assay: Parasite reduction ratio (PRR) assay; assay type: cell-based, Plasmodium falciparum; details: for Slope: 10× EC50, 3D7 killing profile
Protocol: The in vitro killing profile of compounds was determined by monitoring the ability of parasites to recover following treatment with a compound of interest using a previously reported approach ([50]), which allowed calculation of the PRR ([51]). […] To quantify the number of viable parasites following treatment, four independent sets of threefold serial dilutions were performed on each sample, which were assayed for the presence or absence of parasites after 28 days using the LDH assay, and the number of viable parasites was determined by the number of wells showing growth. PRR and PCT99.9% were calculated as previously reported ([50]).

[3] = system: P. falciparum clinical isolates from Tororo and Busia Districts of Uganda; assay: Ex vivo 72-hour SYBR Green assay, Ugandan clinical isolates; assay type: cell-based, Plasmodium falciparum; details: Plasmodium falciparum
Description: Clinical isolates were from the Tororo District of Uganda, located in the central-eastern part of the county near the Kenya border. Tororo and surrounding areas have high-intensity, year-round malaria transmission. […] Patients reporting use of antimalarial treatment within the previous 30 days or with evidence of an infection with other Plasmodium species were excluded. Informed consent was obtained from patients and/or primary care givers (depending on age); children aged 8 to 17 years provided assent. Two to 5 ml of blood was collected by venipuncture in a heparin tube. Samples were delivered to the adjacent IDRC laboratory at Tororo District Hospital or transported by car from Masafu Hospital on the day of collections for storage of blood spots on filter paper (for isolation of nucleic acids) and initiation of ex vivo culture of malaria parasites. Treatment involved a standard therapeutic regimen for uncomplicated falciparum malaria, which was a 3-day course of the artemisinin-based combination therapy (ACT), artemether-lumefantrine. In Uganda, at the time of sampling, there was widespread resistance to the antifolate drugs due to mutant pfdhfr/pfdhps alleles. […] Chloroquine was prepared at 10 mM in water. Stock solutions were stored at −20°C. Working solutions were freshly prepared from a single aliquot within 4 hours of the susceptibility test and stored at 4°C.
as §1

P. falciparum 3D7 = assay: Ex vivo 72-hour SYBR Green assay, 3D7 control (Uganda); assay type: cell-based, Plasmodium falciparum; details: Plasmodium falciparum, 3D7, read-out: EC50 lab strain 3D7
Protocol: as §1

P. falciparum Dd2-B2 = assay: 72-hour flow cytometry EC50 assay, Dd2-B2 parental line; assay type: cell-based, Plasmodium falciparum; details: Plasmodium falciparum, DD2, read-out: EC50 Dd2-B2 parental line
Protocol: (§2) Stocks of SAL-0010003 (5-benzyl), SAL-0010355 (5-aryl), and SAL-0010419 (2-alkyl) were made at 10 and 1 mM in DMSO. Aliquots in use were stored at −20°C, and long-term storage was at −80°C. All in vitro studies were done such that the final DMSO concentration was <0.5%. P. falciparum ABS parasites were cultured at 3% hematocrit in human O+ RBCs in RPMI 1640 medium, supplemented with 25 mM Hepes, 50 mg L-hypoxanthine, 2 mM L-glutamine, 0.225% sodium bicarbonate, 0.5% (w/v) AlbuMAX II (Invitrogen) and gentamycin (10 μg/ml), in modular incubator chambers (Billups-Rothenberg) at 5% O2, 5% CO2, and 90% N2 at 37°C. Dd2-B2 (obtained from T. Wellems, National Institute of Allergy and Infectious Diseases, National Institutes of Health) is a genetically homogenous line that was cloned from Dd2 by limiting dilution. To define the EC50 and EC90 values of ABS parasites, Dd2-B2 ring-stage cultures at 0.2% parasitemia and 1% hematocrit were exposed for 72 hours to a range of 10 drug concentrations that were twofold serially diluted in duplicates along with drug-free controls. Parasite survival was assessed by flow cytometry on an iQue flow cytometer (Sartorius) using SYBR Green and MitoTracker Deep Red FM (Life Technologies) as nuclear stain and vital dyes, respectively. After determination of the EC50 and EC90 values for the three compounds with the P. falciparum Dd2-B2 clone, one single-step selection was set up using 2 × 10^5 parasites in each well of a 96-well plate at a starting concentration of 3× EC90. Parasites were cleared from the culture rapidly, and cultures were screened three times weekly by flow cytometry and counted as positive for recrudescence when the overall parasitemia reached 0.3% and the parasites were visible on a blood smear. DNA was extracted from recrudescent lines using a QIAGEN QIAamp Blood Mini Kit, and libraries were prepared with the Illumina DNA Prep kit for whole-genome sequencing on the Illumina MiSeq using a V3 2 × 300–base pair flow cell.

[4] = system: P. falciparum Dd2-B2 lines selected under drug pressure; assay: 72-hour flow cytometry EC50 assay, lines selected under drug pressure; assay type: cell-based, Plasmodium falciparum; details: for EC50: Plasmodium falciparum
Protocol: Three examples of an additional compound series developed independently [NPD-2958, NPD-3518 ([31]), and NPD-3738; fig.
as §2

HepG2 cells = assay: HepG2 cytotoxicity; assay type: cell-based
Description: Table 1. Key activity data for the three main chemical subseries against ABS parasites, parasite fractions, and HepG2 cells. ND, not determined; ×/÷ is the geometric mean with geometric SD. | column: HepG2 EC50 (nM) (selectivity index)

[5] = system: P. falciparum clinical isolates from Porto Velho, Brazil; assay: Ex vivo schizont maturation assay, Brazilian clinical isolates; assay type: cell-based, Plasmodium falciparum; details: Plasmodium falciparum
Protocol: Only monoinfected patients with P. falciparum with parasitemia between 2000 and 80,000 parasites/μl and with at least 70% of ring-stage parasites were recruited. Patients who had used an antimalarial in the previous month and/or presented with symptoms of severe malaria were excluded from the study. The study cohort comprised 24 patients living in this highly endemic area. A peripheral venous blood sample (5 ml) was collected from each individual by venipuncture in heparin-containing tubes and immediately used in the ex vivo drug susceptibility assay using preprepared plates containing diluted antimalarial compounds. […] Last, 20 μl of each dilution was transferred into the ex vivo assay plate and diluted 10-fold into the final assay medium containing parasites. For the infected blood preparation, 5 ml of whole blood was centrifuged at 800g for 10 min, and the plasma and buffy coat were removed. […] Control assays on a 3D7 laboratory isolate were performed with medium supplemented with human serum (20%). The iRBC (180 μl per well) were distributed in the predosed drug plate. […] Control wells containing drug-free iRBCs were cultured with complete medium. The parasite-drug incubation was terminated when 40% of the ring stages reached the schizont stage (at least three distinct nuclei per parasite) in the drug-free control wells. Thick blood films were then made from each well, dried, stained with 5% Giemsa solution for 30 min, and examined microscopically. The number of schizonts per 200 asexual-stage parasites was determined for each drug concentration and then normalized by comparing with the schizont number in the drug-free control wells [considered as 100% ([64])]. The half-maximal drug inhibitory response (EC50) was estimated by curve fitting using software from the OriginLab Corporation, Northampton, MA, USA and comparing with parasite growth in the drug-free controls.

[6] = read-out: EC50 clinical isolates, Gmean (geometric mean)
[7] = read-out: EC50 clinical isolates, Median
[8] = read-out: EC50 clinical isolates, Range

Structure (SMILES): Cn1c(=O)c2c(ncn2C)n(C)c1=O [caffeine]
IC50 [1]: > 100000 nM

Structure (SMILES): COc1ccc(C2CNC(=O)C2)cc1OC1CCCC1 (stereo not shown) [rolipram]
IC50 [1]: > 100000 nM

Structure (SMILES): CCc1nc(N)nc(N)c1-c1ccc(Cl)cc1 [Pyrimethamine, reference compound]
EC50 (P. falciparum Dd2): 21700 nM
Lag phase ([2]; 10× EC50, 3D7): 24 h
Log PRR ([2]; 10× EC50, 3D7): 3.2
PCT99.9% (hours taken to kill 99.9% of the parasites) ([2]; 10× EC50, 3D7): 63.1 h
Slope [2]: −0.0667 ± 0.0059
EC50 [3, 6]: 41600 nM
EC50 [3, 7]: 39300 nM
EC50 [3, 8]: 15900 to 196000 nM
EC50 ([3]; read-out: Geometric mean EC50, Ugandan isolates (Fig. 3B)): 41600 nM
EC50 (P. falciparum 3D7): 46 nM

Structure (SMILES): CC(C)Cn1c(=O)n(C)c(=O)c2[nH]cnc21 [3-isobutyl-1-methylxanthine]
IC50 [1]: > 100000 nM

Structure (SMILES): CC(C)COc1ccc(C(=O)N2CC(N(C)C)C2)cc1-c1nc2c(C(C)C)n[nH]c2c(=O)[nH]1 [SAL-0010355]
EC50 (P. falciparum Dd2-B2): 69.2 nM
EC50 ([4]; DD2, read-out: EC50, line selected with SAL-0010355, Well B7): 430 nM
EC50 ([4]; DD2, read-out: EC50, line selected with SAL-0010355, Well D7): 468 nM
EC50 ([4]; DD2, read-out: EC50, line selected with SAL-0010355, Well D9): 371 nM
Mean fold change in EC50 ([4]; selected lines vs Dd2-B2 parental line, ±SD): 6.1 ± 0.7 fold
EC50 shift, line selected with SAL-0010355, Well B7 ([4]; vs Dd2-B2): 6.2 fold
EC50 shift, line selected with SAL-0010355, Well D7 ([4]; vs Dd2-B2): 6.8 fold
EC50 shift, line selected with SAL-0010355, Well D9 ([4]; vs Dd2-B2): 5.4 fold
EC50 (HepG2 cells; Homo sapiens, HepG2): > 25000 nM
HepG2 selectivity index (HepG2 cells; value in brackets after HepG2 EC50): 1,185

Structure (SMILES): Cn1c(=O)c2[nH]cnc2n(C)c1=O [theophylline]
IC50 [1]: > 100000 nM

EC50 (P. falciparum Dd2): 347 nM
EC50 ([5]; read-out: EC50 range, clinical isolates): 626 to 2600 nM
EC50 ([5]; read-out: Median EC50, clinical isolates): 1200 nM
EC50 [3, 6]: 13 nM
EC50 [3, 7]: 14 nM
EC50 [3, 8]: 2 to 25 nM
EC50 (P. falciparum 3D7): 9.4 nM
Structure (SMILES): CCN(CC)CCCC(C)Nc1ccnc2cc(Cl)ccc12 (stereo not shown) [Chloroquine, reference compound]
Lag phase ([2]; 10× EC50, 3D7): 0 h
PCT99.9% (hours taken to kill 99.9% of the parasites) ([2]; 10× EC50, 3D7): 39.0 h
Slope [2]: −0.0717 ± 0.0037
